Columns and labels:
Type in all cases: physicochemical
[1] = Photobleaching under 780 nm LED irradiation (NIR absorbance)
Description: FIG. 2. […] Time points=0, 15, 30 mins. Samples were irradiated with a LED light source at 780 m, (300 mW power output, 47.3 μW/mm^2 maximum irradiance).
FIG. 3. Absorption measurements of a 25 μM solution of a) Cy7-Cl and b) Cy780-Acryl when irradiated with a 780 nm LED light. Time points=0, 15, 30 mins. Samples were irradiated with a LED light source at 780 m, (300 mW power output, 47.3 μW/mm^2 maximum irradiance).
FIG. 4. Absorption measurements of a NIR-nanogel sample without dissolved oxygen when irradiated with a 780 nm LED light. Time points=0, 15, 30, 45, 60, 75, 90 mins. Samples were irradiated with a LED light source at 780 m, (300 mW power output, 47.3 μW/mm^2 maximum irradiance).
Time points=0, 15, 30, 45, 60, 90, 120, 150, 180 mins. b) Diameter of NIR-nanogels with and without NIR light irradiation measured via dynamic light scattering (left) and scanning electron microscopy (right). […] (n=300 for SEM) Scale bar represents 500 nm. e) Normalized absorbance of nanogels exposed to biologically relevant reactive species. f) Normalized absorbance of nanogels suspended in Britton-Robinson buffer (pH 4.2 to 12.0). […]
With the various components in hand, we turned our attention to testing whether the amide moiety would impact the photophysical properties of the cyanine core. First, we analyzed the absorption spectrum and measured the extinction coefficient of Cy780-Acryl. […]

[2] = Absorption spectrum and extinction coefficient in DMSO
Text: With the various components in hand, we turned our attention to testing whether the amide moiety would impact the photophysical properties of the cyanine core. First, we analyzed the absorption spectrum and measured the extinction coefficient of Cy780-Acryl. Compared to the Cy7-Cl reference in DMSO, the λmax (831 nm cf. 793 nm) and extinction coefficients (1.11×10^5 M^−1cm^−1 cf. 1.23×10^5 M^−1cm^−1) were similar. Next, we evaluated the photostability of the crosslinker. When Cy780-Acryl (as well as Cy780-Acetamido) was irradiated with a LED light source at 780 nm (300 mW power output, 47.3 μW/mm^2 maximum irradiance), we found complete degradation of the molecule after only 25 minutes based on the disappearance of the NIR absorbance band (FIG. 2). […] Of note, when dissolved oxygen was removed prior to the initiation of photobleaching, we found the change in absorbance to be minimal, supporting the proposed dioxetane mechanism (FIG. 4). Indeed, the anticipated carbonyl fragmentation products were detected via LC-MS when samples were irradiated in the presence of oxygen (FIG. 5).
^1H and ^13C NMR spectra were acquired on a Varian 500 or Carver B500 spectrometer. […] Spectra were visualized and analyzed using MestReNova (version 14.2) and referenced to trace non-deuterated solvent. […]

[3] = Passive release of encapsulated cargo via dialysis; details: drug-loaded NIR-nanogel, dialysis against MilliQ/DI water; for passive leeching of cargo (concentration loss): three hours
Description: FIG. 10A-D. Passive release of encapsulated a) cisplatin b) gefitinib c) GW9662 and d) Paclitaxel via dialysis for 0, 1, 2, and 4 hours against DI water.
After extensive screening, we obtained an optimized procedure that yielded reliable encapsulation results for each drug. We discovered that slow addition (versus bolus addition) of the drug to NIR-nanogel samples was essential to maintain a homogeneous suspension of the particles in solution. Further, the inclusion of at least 10% ethanol as a solubilizing co-solvent was necessary for drug encapsulation. […] After removal of non-encapsulated drug, we established a method to assess passive leeching of the contents by dialyzing the drug-loaded sample against MilliQ water. Small aliquots were removed at various time points and compared to the initial cargo concentration. […] In general, the extent of passive cargo loss was determined by placing a photobleached sample of each drug-loaded NIR-nanogel in 3 kDa MWCO dialysis tubing for dialysis against DI water. Aliquots were taken to determine the absorbance at various time points for comparison against the corresponding calibration curve.

SMILES	passive leeching of cargo (concentration loss) [3]	passive release of cargo (result in words) [3]	other results
C=CC(=O)Nc1ccc2c(c1)C(C)(C)C(/C=C/C1=C(Cl)C(=C/C=C3/N(CC)c4ccc(NC(=O)C=C)cc4C3(C)C)/CCC1)=[N+]2CC [Cy780-Acryl]			change in absorbance on irradiation without dissolved oxygen ([1]; 780 nm LED, dissolved oxygen removed prior to photobleaching): minimal; time to complete degradation (disappearance of the NIR absorbance band) ([1]; LED 780 nm, 300 mW power output, 47.3 μW/mm^2 maximum irradiance): 25 min; extinction coefficient [2]: 111000 M⁻¹ cm⁻¹; λmax [2]: 831 nm
COc1cc2ncnc(Nc3ccc(F)c(Cl)c3)c2cc1OCCCN1CCOCC1 [gefitinib]	~ 6%		
N.N.[Cl][Pt][Cl] [cisplatin]	~ 50%		
O=C(Nc1ccccc1)c1cc([N+](=O)[O-])ccc1Cl [GW9662]		no passive release	
CC(=O)O[C@H]1C(=O)[C@@]2(C)[C@H]([C@H](OC(=O)c3ccccc3)[C@]3(O)C[C@H](OC(=O)[C@H](O)[C@@H](NC(=O)c4ccccc4)c4ccccc4)C(C)=C1C3(C)C)[C@]1(OC(C)=O)CO[C@@H]1C[C@@H]2O [paclitaxel]		minimal leeching	
